The values that follow come from US20060079453A1, “Hla binding peptides and their uses” (priority 2002, published 2006).

No end group written: not given here. Some results are limits rather than exact numbers.

Assay in all cases: biochemical
What all share (assay type): binding

One experiment has as its target HLA-DR DRB1*0401 (DR4) (Homo sapiens, UniProt P01903+P01911, A100K/A169T/F76Y/I96L/K127E/L162R/M171V/N62H/P40V/Q125Y/R42H/S133A/S149N/S66Y/V115G/V209L/W38E). Particulars: DRB1 *0401.
In the next experiment the target is HLA-DR DRB1*1501 (DR15) (Homo sapiens, UniProt P01903+P01911). Particulars: DRBI *1501.
Another experiment addresses HLA-DR DRB1*1101 (DR11) (Homo sapiens, UniProt P01903+P01911, A100R/A169T/A87E/I96F/K41T/L162R/M171V/P40S/Q125H/Q178H/Q39Y/Q99D/R42S/S66Y/T262R/V115G/W38E). Particulars: DRB1 *1101.
The next experiment deals with HLA-DR DRB1*0701 (DR7) (Homo sapiens, UniProt P01903+P01911, A100R/A102G/A103Q/D57E/D86V/E43K/F76Y/K127E/L162R/M171V/P40G/Q125H/Q99D/R33Q/R42Y/R54Q/S133A/S66F/T210M/V115G/Y107V/Y59L/Y89S). Particulars: DRB1 *0701.
Another experiment has as its target HLA-DR DRB4*0101 (DR53) (Homo sapiens, UniProt P01903+P13762, G164S). Particulars: DRB4 *0101.
Another experiment deals with HLA-DR DRB1*1302 (DR13) (Homo sapiens, UniProt P01903+P01911, A100E/A169T/K41T/L162R/M171V/P40S/Q125H/Q178H/Q39Y/Q99D/R42S/S66N/T262R/V115G/W38E/Y61H). Particulars: DRBI *1302.
HLA-DR DRB1*1302 (DR13), sequence (P01903 26-254 limits assumed, other chains not shown): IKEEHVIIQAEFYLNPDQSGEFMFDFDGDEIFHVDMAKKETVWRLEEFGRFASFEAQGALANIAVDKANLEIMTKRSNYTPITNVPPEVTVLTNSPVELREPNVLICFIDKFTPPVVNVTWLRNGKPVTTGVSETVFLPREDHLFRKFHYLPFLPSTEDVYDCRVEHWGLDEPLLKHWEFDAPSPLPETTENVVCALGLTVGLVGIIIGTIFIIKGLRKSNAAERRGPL
In the next experiment the target is HLA-DR DRB1*0101 (DR1) (Homo sapiens, UniProt P01903+P01911, A100R/D57E/F55L/F60I/F76Y/I96L/L162R/M171V/P40L/Q125E/R42F/V115G/Y59C). Particulars: DRB1 *0101.
The target of the next experiment is HLA-DR DRB1*0901 (DR9) (Homo sapiens, UniProt P01903+P01911, A100R/A103E/D57H/D86V/F55Y/F60I/F76Y/I96F/K127E/L162R/M171V/P40D/Q125H/Q99R/R33Q/R42F/S133A/S66N/T210M/V115G/W38K/Y107V/Y59G/Y89S). Particulars: DRB1 *0901.
The next experiment addresses HLA-DR DRB1*0802 (DR8) (Homo sapiens, UniProt P01903+P01911, A100R/A103L/A169T/F76Y/H45Y/I96F/K41T/L162R/M171V/P40S/Q125H/Q178H/Q39Y/Q99D/R218S/R42G/S66Y/V115G/W38E).
The target of the next experiment is HLA-DR DRB5*0101 (DR51) (Homo sapiens, UniProt P01903+Q30154). Particulars: DRB5 *0101.

HLA-DR DRB1*1101 (DR11), sequence (P01903 26-254 limits assumed, other chains not shown): as above

What is called IC50 is the point on the concentration scale where inhibition reaches its midpoint. A lower IC50 goes with inhibition by little substance. With `CC[C@H](C)[C@H](NC(=O)CNC(=O)[C@H](CCC(N)=O)NC(=O)[C@H](CC(C)C)NC(=O)[C@@H](NC(=O)CNC(=O)[C@H](CC(N)=O)NC(=O)[C@H](CS)NC(=O)[C@@H](NC(=O)[C@H](CC(C)C)NC(=O)[C@@H]1CCCN1C(=O)CN)C(C)C)C(C)C)C(=O)N[C@H](C(=O)N[C@@H](CO)C(=O)N[C@@H](Cc1c[nH]c2ccccc12)C(=O)O)[C@@H](C)O`, the IC50 against HLA-DR DRB1*0401 (DR4) is 0.03 µM; against HLA-DR DRB1*1501 (DR15), 6.31 µM; against HLA-DR DRB1*1101 (DR11) it was 0.915 µM; on HLA-DR DRB1*0701 (DR7), 4.89 µM; against HLA-DR DRB4*0101 (DR53), 0.646 µM; at HLA-DR DRB1*1302 (DR13), 0.049 µM. For the same compound, the IC50 on HLA-DR DRB1*0101 (DR1) came out at 1.72 µM; against HLA-DR DRB1*0901 (DR9), 32.6 µM; at HLA-DR DRB1*0802 (DR8), 4.19 µM; at HLA-DR DRB5*0101 (DR51), 6.54 µM.

Turning to PRSLQCVSLHLLSND, the IC50 stood at 16 µM against HLA-DR DRB1*0401 (DR4); 1.6 µM on HLA-DR DRB1*1501 (DR15); 11.1 µM at HLA-DR DRB1*1101 (DR11); 2.22 µM on HLA-DR DRB1*0701 (DR7); 0.544 µM on HLA-DR DRB4*0101 (DR53); 3.73 µM at HLA-DR DRB1*1302 (DR13). In addition, the IC50 against HLA-DR DRB1*0101 (DR1) turned out to be 1.11 µM; at HLA-DR DRB1*0901 (DR9), 28.3 µM; at HLA-DR DRB1*0802 (DR8), 6.11 µM; against HLA-DR DRB5*0101 (DR51), 46.4 µM.

On to `CC[C@H](C)[C@H](NC(=O)[C@H](CO)NC(=O)[C@H](CC(C)C)NC(=O)[C@@H](NC(=O)[C@H](CC(C)C)NC(=O)[C@H](CC(=O)O)NC(=O)[C@H](Cc1c[nH]c2ccccc12)NC(=O)[C@@H](N)CCSC)C(C)C)C(=O)N[C@@H](C)C(=O)N[C@@H](CC(C)C)C(=O)N[C@@H](CO)C(=O)N[C@H](C(=O)NCC(=O)N[C@@H](CS)C(=O)N[C@H](C(=O)O)[C@@H](C)O)C(C)C`, for which the IC50 on HLA-DR DRB1*0401 (DR4) was determined as 1.85 µM; at HLA-DR DRB1*1501 (DR15), 11.4 µM; against HLA-DR DRB1*1101 (DR11), 81.1 µM; on HLA-DR DRB1*0701 (DR7), 3.03 µM; at HLA-DR DRB4*0101 (DR53), 0.158 µM; on HLA-DR DRB1*1302 (DR13), 0.108 µM. For the same compound, the IC50 came out at 0.205 µM at HLA-DR DRB1*0101 (DR1), 1.73 µM against HLA-DR DRB1*0901 (DR9), 23 µM on HLA-DR DRB1*0802 (DR8) and 70.7 µM against HLA-DR DRB5*0101 (DR51).

As for `CSCC[C@H](NC(=O)[C@H](CCC(N)=O)NC(=O)[C@H](CC(C)C)NC(=O)CNC(=O)[C@H](CO)NC(=O)[C@@H](NC(=O)[C@@H](NC(=O)[C@@H](NC(=O)[C@@H](N)CC(=O)O)[C@@H](C)O)[C@@H](C)O)C(C)C)C(=O)N[C@@H](C)C(=O)N[C@@H](CC(C)C)C(=O)N[C@@H](CC(=O)O)C(=O)N[C@H](C(=O)N[C@@H](Cc1ccc(O)cc1)C(=O)N[C@@H](CC(N)=O)C(=O)O)C(C)C`, the IC50 at HLA-DR DRB1*0401 (DR4) is 4.42 µM; at HLA-DR DRB1*1501 (DR15), 1.04 µM; against HLA-DR DRB1*1101 (DR11), more than 50 µM; on HLA-DR DRB1*0701 (DR7), 14.7 µM; against HLA-DR DRB4*0101 (DR53), 0.961 µM; on HLA-DR DRB1*1302 (DR13), 3.5 µM. For the same compound, the values for the IC50 against HLA-DR DRB1*0901 (DR9), against HLA-DR DRB1*0802 (DR8) and against HLA-DR DRB5*0101 (DR51) were 2.88 µM, more than 245 µM and more than 200 µM, respectively.

Regarding IGYYDAQKLLEKMGG, the IC50 on HLA-DR DRB1*0401 (DR4) is 12.6 µM; on HLA-DR DRB1*1501 (DR15), 1.98 µM; on HLA-DR DRB1*1101 (DR11), more than 28.6 µM; at HLA-DR DRB1*0701 (DR7), more than 83.3 µM; at HLA-DR DRB4*0101 (DR53) it was 13.6 µM; on HLA-DR DRB1*1302 (DR13), 5.73 µM. Also, the 50% inhibitory concentration (IC50) on HLA-DR DRB1*0901 (DR9) turned out to be 47.2 µM; against HLA-DR DRB1*0802 (DR8), 8.24 µM.

With PRWLCAGALVLAGGF, the half-maximal inhibitory concentration (IC50) at HLA-DR DRB1*0401 (DR4) is more than 20 µM; at HLA-DR DRB1*1101 (DR11), more than 40 µM; at HLA-DR DRB1*0701 (DR7), 0.766 µM; at HLA-DR DRB4*0101 (DR53) it was 0.883 µM; on HLA-DR DRB1*1302 (DR13), 20.2 µM; on HLA-DR DRB1*0101 (DR1), 0.046 µM. For the same compound, the IC50 on HLA-DR DRB1*0901 (DR9) stood at 1.44 µM; against HLA-DR DRB1*0802 (DR8), 26.5 µM; against HLA-DR DRB5*0101 (DR51), 40.8 µM.
